In patent US7534558B2, “In vitro diagnostic test for enterovirus infections” (Universite de Lille 2 Droit Et Sante, priority 2003, dated 2009):
Entries after “also recorded” stand apart in the source; their conditions may differ.

Experiments:
[1] = tested on: CVB4E2/plasma induced IFNα production by PBMCs; experiment: CVB4E2/plasma induced IFNα production by PBMCs (DELFIA); type: cell-based, human
Procedure: (§1) VP4, H antigen or mock proteins were preincubated for 1 h at 37° C. at different concentrations with plasma from 5 healthy subjects diluted at optimal dilution (1/10 or 1/100 ). CVB3 or CVB4 were then added for 1 hour before incubating with PBMCs. […] On the contrary, the mock proteins isolated from non-infected Hep-2 cells have non effect on the IFNα production.
PBMCs separated from whole heparinated blood are distributed into microwells (plate of 96 wells), at the rate of 5 to 8.10^5 cell in 100 μl of supplemented RPMI medium by well. The infection of PBMC is made with a final volume of 100 μl of preparation in each well. After incubation for 48 h at 37° C. under a 5% CO2 atmosphere and 90% humidity, the supernatant is harvested and used immediately for IFNα dosage, or clarified by centrifugation for 10 minutes at 180×g and stored at −80° C. until dosage of the produced IFNα.
(§2) The concentration of the produced IFNα is determined with a sensitive and specific technique, the DELFIA method (Dissociation Enhanced Lanthanide FluoroImmmoAssay) (Rönnblom and al 1997).
(§3) The dosage of IFNα is performed following the DELFIA principle (Dissociation Enhanced Lanthanide FluoroImmunoAssay), based on a immunofluorescence in retarded phase method using antibodies binding IFNα of which one is labelled with europium. The use of an activation solution will release the europium conjugated with antibodies and emit a fluorescence proportional to the amount of produced IFNα and measured with a fluorometer (fluorometer LKB Wallac 1230 ARCOSO®, Turku, Finlande).
Monoclonal anti-IFNα antibodies LT 273 (5.4 mg/ml) and LT 293 (4.8 mg/ml) supplied by Dr Gunar Alm (Uppsala, Sweden) are coated to the bottom of the wells after an incubation for 12 hours at room temperature. These plates can be stored in a buffer at 4° C. or are used immediately. Standard samples of human IFNα are prepared with an “irrelevant” monoclonal mouse antibody IgG1 in order to establish the reference curve (10 measurements). The other samples to be analysed are added to each well (100 μl) with the dilution buffer and the “irrelevant” antibodies and incubated for 2 hours with gentle stirring at room temperature. The wells are washed 3 times with the washing solution. The antibody conjugated to europium (200 μl) is added to each well, left to incubate for 1 hour at room temperature with gentle stirring. The plate is washed 6 times with a washing solution. The activation solution (200 μl), added immediately after washing and left for 20 to 30 minutes for incubation in the well, causes a cleavage of the europium bound to the antibody fixed to IFNα, emitting a fluorescence measured with the fluorescence reader (LKB Wallac 1230 ARCUS®). The IFNα concentration will be calculated from the values of the measured fluorescence by means of the Graphpad program (San Diego, USA). The detection threshold of IFNα is of 0.5 IU/ml.
The plasma from a healthy donor (optimal dilution 1/10th or 1/100th) is pre-incubated for 1 hour at 37° C. with the recombinant VP4 protein of CVB4E2 (optimal concentration at 1 μg/ml). The whole is incubated again for one hour at 37° C. in the presence of the CVB4E2 virus (dilutions at 1/10th or 1/100th; viral titer at 10^13 TCID50/ml) then applied to the PBMCs, (5.10^5/well) to incubate for 48 hours.
In the same way, the plasma preparation preincubated for 1 hour and VP4 of CVB3 are incubated for 1 hour with CVB4E2 before infecting the PBMCs for 48 hours and determinating the amount of the produced IFNα.
The virus (CVB4E2 or CVB3) infected PBMCs in the presence of plasma are deemed to be positive controls of this experimentation. The negative controls are obtained with one well of PBMC alone, one well of virus CVB4B2 alone and one well of CVB3 alone.
The CVB4E2 induced IFNα production in cultures of PBMCs previously incubated in the presence of plasma from healthy subjects was measured. […]

[2] = tested on: anti-VP4 antibodies in plasmas or serums; experiment: ELISA of plasmas/serums on wells coated with VP4 protein or VP4 peptides; type: binding, human; settings: for OD in ELISA assay compared with the VP4 protein: 40 serums from patients and 40 controls; for Mean value of OD ratio (OD / OD of negative control), ELISA: diluted 1/50, antigen coated at 5 μg/ml, 490 nm
Procedure: 40 plasmas from non diabetic patients and 40 plasmas or serums from diabetic patients were assayed.
The VP4 protein or the 5 VP4 peptides, diluted at 5 μg/ml in PBS buffer pH=7.4, are coated in the wells of a microplate of 96 wells (FluoroMunc, MaxiSorp surface, NUNC, Danemark) at the rate of 100 μl/well. The plates are incubated for 1 hour at 37° C. under humid atmosphere, then left for 24 h at room temperature. After 3 washings with PBS buffer, the wells are saturated with 300 μl of saturation buffer for 1 hour at 37° C. under humid atmosphere, before washing 3 times with the washing buffer. Then 250 μl of post-coating buffer are added to each well and the plates are incubated for 24 h at room temperature, then stored at 4° C. until use.
The wells coated with the VP4 protein or the different peptides VP4 are washed 3 times with washing buffer in order to remove the post-coating solution. Then 100 μl of the plasmas or serums diluted to 1/50th in dilution buffer are added to different wells and the plates are incubated for 1 hour at 37° C. under humid atmosphere. Simultaneously, a negative control well containing 100 μl of dilution buffer is carried out. Then the wells are washed 3 times with the washing solution and 100 μl of secondary antibody solution are added to each well. After incubation for 1 h at 37° C. under humid atmosphere, the wells are washed 5 times with the washing solution and 100 μl of substrate solution are added to each well. The plates are incubated for 30 minutes at room temperature and in the dark. The coloured reaction is stopped by addition of 25 μl of H2SO4 2M (1M) per well and the plates are read in a plate reader at a wavelength of 490 nm.
ODs obtained for each serum with the VP4 protein and the different peptides VP4 were divided by the OD obtained with the negative control. The following Tables show the mean +/− standard deviation of the rates of OD obtained with the two series of assayed serums (Patient=diabetic patients, Control=not diabetic). (see FIGS. 8 à 10)

[3] = tested on: CVB3/plasma induced IFNα production by PBMCs; experiment: CVB3/plasma induced IFNα production by PBMCs (DELFIA); type: cell-based, human; settings: protein preincubated 1 h at 37°C at different concentrations with plasma from healthy subjects, then CVB3, then PBMCs
Procedure: as §1
PBMCs separated from whole heparinated blood are distributed into microwells (plate of 96 wells), at the rate of 5 to 8.10^5 cell in 100 μl of supplemented RPMI medium by well. The infection of PBMC is made with a final volume of 100 μl of preparation in each well. […]
as §2
as §3, with “Finlande). […]” for “Finlande).”

[4] = Control = 40 serums of non diabetic patients
[5] = Patient = 40 serums of diabetic patients

Compound: CC[C@H](C)[C@H](NC(=O)[C@H](CC(N)=O)NC(=O)[C@@H](NC(=O)[C@H](Cc1ccc(O)cc1)NC(=O)[C@H](Cc1c[nH]cn1)NC(=O)[C@@H](NC(=O)[C@@H](NC(=O)[C@H](CO)NC(=O)[C@H](CC(N)=O)NC(=O)CNC(=O)[C@H](CO)NC(=O)[C@H](C)NC(=O)[C@H](CO)NC(=O)[C@H](CC(C)C)NC(=O)[C@H](CO)NC(=O)[C@@H](NC(=O)[C@H](CCC(=O)O)NC(=O)[C@H](Cc1c[nH]cn1)NC(=O)[C@H](C)NC(=O)CN)[C@@H](C)O)[C@@H](C)CC)[C@@H](C)CC)[C@@H](C)O)C(N)=O [VP4-P2]
- effect on IFNα production during infection of PBMCs with CVB4E2 in the presence of plasma ([1]; plasma 1/100th, peptide at three concentrations (FIG. 11, tracks 7 to 9)): diminution of the dose-dependent IFNα production
- OD in ELISA assay compared with the VP4 protein [2]: comparable to the VP4 protein; also recorded: same behaviour as VP4; also recorded: recognizes a higher level of antibodies with diabetics as with non-diabetics
- Mean value of OD ratio (OD / OD of negative control), ELISA [2, 4]: 0.691
- Mean value of OD ratio (OD / OD of negative control), ELISA [2, 5]: 2.373
- Mean value of OD ratio (OD / OD of negative control), ELISA ([2]; Patient = 40 serums of diabetic patients, listed as Peptide P2): 2.376

Compound: CC(C)[C@H](NC(=O)[C@H](CC(=O)O)NC(=O)[C@H](CCCCN)NC(=O)[C@@H](NC(=O)[C@@H]1CCCN1C(=O)[C@H](CCC(=O)O)NC(=O)[C@@H](NC(=O)[C@H](Cc1ccccc1)NC(=O)[C@H](CCCCN)NC(=O)[C@H](CO)NC(=O)[C@@H]1CCCN1C(=O)[C@H](CC(=O)O)NC(=O)[C@H](CCC(N)=O)NC(=O)[C@@H](NC(=O)[C@H](Cc1ccccc1)NC(=O)[C@H](CC(=O)O)NC(=O)[C@H](CCC(N)=O)NC(=O)[C@H](CCCNC(=N)N)NC(=O)[C@H](CC(N)=O)NC(=O)[C@H](C)NC(=O)[C@H](CO)NC(=O)[C@H](CC(N)=O)NC(=O)[C@H](CO)NC(=O)[C@H](C)NC(=O)[C@H](C)NC(=O)[C@H](CC(=O)O)NC(=O)[C@H](CCCCN)NC(=O)[C@H](Cc1ccc(O)cc1)NC(=O)[C@H](Cc1ccc(O)cc1)NC(=O)[C@@H](N)CC(N)=O)[C@@H](C)O)[C@@H](C)O)C(C)C)C(N)=O [VP4-P5]
- Mean value of OD ratio (OD / OD of negative control), ELISA [2, 5]: 0.968

Compound: CC[C@H](C)[C@H](NC(=O)[C@H](CC(N)=O)NC(=O)[C@@H](NC(=O)[C@H](Cc1ccc(O)cc1)NC(=O)[C@H](Cc1c[nH]cn1)NC(=O)[C@@H](NC(=O)[C@@H](NC(=O)[C@H](CO)NC(=O)[C@H](CC(N)=O)NC(=O)CN)[C@@H](C)CC)[C@@H](C)CC)[C@@H](C)O)C(=O)N[C@@H](CC(N)=O)C(=O)N[C@@H](Cc1ccc(O)cc1)C(=O)N[C@@H](Cc1ccc(O)cc1)C(=O)N[C@@H](CCCCN)C(=O)N[C@@H](CC(=O)O)C(=O)N[C@@H](C)C(=O)N[C@@H](C)C(=O)N[C@@H](CO)C(=O)N[C@@H](CC(N)=O)C(=O)N[C@@H](CO)C(N)=O [VP4-P3]
- Mean value of OD ratio (OD / OD of negative control), ELISA [2, 5]: 0.712

Compound: VP4CVB4: natural structural internal protein VP4 dissociated and purified from coxsackievirus CVB4 E2
- effect on CVB3/plasma induced IFNα production [3]: no change
- effect on CVB4/plasma induced IFNα production ([1]; protein preincubated 1 h at 37°C at different concentrations with plasma from healthy subjects, then CVB4, then PBMCs): Decrease
- Mean value of OD ratio (OD / OD of negative control), ELISA [2, 4]: 0.711
- Mean value of OD ratio (OD / OD of negative control), ELISA [2, 5]: 1.964

Compound: CSCC[C@H](N)C(=O)NCC(=O)N[C@@H](C)C(=O)N[C@@H](CCC(N)=O)C(=O)N[C@H](C(=O)N[C@@H](CO)C(=O)N[C@H](C(=O)N[C@@H](CCC(N)=O)C(=O)N[C@@H](CCCCN)C(=O)N[C@H](C(=O)NCC(=O)N[C@@H](C)C(=O)N[C@@H](Cc1c[nH]cn1)C(=O)N[C@@H](CCC(=O)O)C(=O)N[C@H](C(=O)N[C@@H](CO)C(=O)N[C@@H](CC(C)C)C(=O)N[C@@H](CO)C(=O)N[C@@H](C)C(=O)N[C@@H](CO)C(N)=O)[C@@H](C)O)[C@@H](C)O)[C@@H](C)O)C(C)C [VP4-P1]
- OD in ELISA assay compared with the VP4 protein [2]: comparable to the VP4 protein
- Mean value of OD ratio (OD / OD of negative control), ELISA [2, 5]: 1.450

Compound: H-SKFTEPVKDVMIKSLPALN-NH2 [VP4-P6, NH2-SKFTEPVKDVMIKSLPALN-CONH2]
- Mean value of OD ratio (OD / OD of negative control), ELISA [2, 5]: 0.600
